Reference: patent publication US7754687B2, “Methods of inhibiting viral infection” (Mount Sinai School of Medicine, priority 2005, dated 2010)
Where two headings read alike, the source gives them in different places. No end group written: not given here.

Experiments:
HIV-1VSV = assay type: cell-based
HIV-1BaL = HIV-1BaL replication in primary macrophages, p24 antigen ELISA; assay type: cell-based
HDAC = test: Effect of sodium butyrate on ProTα activity in macrophages carrying integrated HIV-1; assay type: cell-based; details: data not presented
Source text: Moreover, both IkBα and ProTα can bind to HDAC and form intracellular complexes with DNA (51, 52). Therefore investigating the functions of these transcriptional factors and studying the competitive binding of HDAC to IkB and/or ProTα and chromatin immunoprecipitation studies may help to further reveal how ProTα inhibits HIV-1 transcription in primary macrophages.

HIV-1JRFL [1] = assay type: cell-based; details: primary macrophages
HIV-1JRFL [2] = assay type: cell-based; details: HeLa CD4+/CCR5+ cells
HIV-1JRFL [3] = assay type: cell-based; details: Hos CD4+/CCR5+ cells; data not presented
[4] = tested on: CCR5 tropic HIV-1 primary isolates; test: Replication of CCR5 HIV-1 primary isolate in primary macrophages, p24; assay type: cell-based; details: 200 ng/ml, p24 day 15
[5] = tested on: dual tropic HIV-1 primary isolate; test: Replication of dual tropic HIV-1 primary isolate in primary macrophages, p24; assay type: cell-based; details: 200 ng/ml, p24 day 15
HIVVSV = assay type: cell-based, HIV-1; details: 200 ng/ml
[6] = tested on: HIV-1 LTR controlled luciferase reporter gene mRNA; test: Real time RT-PCR of luciferase reporter gene mRNA in HIV-1VSV infected macrophages; assay type: cell-based; details: 200 ng/ml for 24 hr; 72 hr post infection; vs control medium
Experimental: (§1) RNA was isolated from macrophages infected with HIVVSV for 72 hr and treated with medium alone or ProTα 24 hr post treatment using Absolutely RNA kit (Stratagene). Real time PCR was done at Mount Sinai Medical Center Core Facility using following primers: […]
for Luciferase reporter gene: sense-[…] antisense-[…].
(§2) Each assay was performed in triplicate. Quantification of each PCR product was expressed relative to -actin.

STAT1 [7] = test: STAT1 phosphorylation western blot, primary macrophages; assay type: cell-based; details: 15 min, ProTα 1 μg/mL or 10% conditioned medium
Experimental: (§3) Whole cell extract from macrophages and Hela cells treated with 10% cell conditioned medium from CD8+ cells, ProTα or medium was prepared by adding 1×SDS Sample buffer (100 ul per 6 well plate). For western blot analyses, protein samples were treated with 2.5 M DTT or 2.5% 2-mercaptoethanol and separated by SDS-Page 4-20% Tris-Glycine gradient gels (Novex-Invitrogen Calif.). Following separation by SDS-Page, the gel was blotted onto PVDF membrane (Novex-Invitrogen San-Diego, Carlsbad, Calif.). After blocking with 5% nonfat milk the membrane was incubated with 1/1000 dilution of anti P-STAT-1 (Tyr701) (Cell Signaling Technology) for 24 hr at 4° C. in PBS. The membrane was washed in PBS with 0.05% Tween 20 and treated with 1/2000 diluted anti-rabbit antibodies labeled with horseradish […] (Amersham pharmacia UK). The membrane was washed in PBS with 0.05% tween 20 and Western blot chemiluminescence reagent was added.
(§4) To establish whether ProTα also induces STAT1 activation in primary macrophages and HeLa-CD4 cells, such cells were briefly (15 min) incubated with ProTα protein at 1 μg/mL or 10% cell conditioned medium after incubation for 2 hr in serum free medium to reduce baseline phosphorylation. A western blot of the electrophoresed total lysate of treated and untreated cells was probed with an antibody specific for STAT1 phosphorylated at tyrosine 701 (FIG. 8).

STAT1 [8] = test: STAT1 phosphorylation western blot, HeLa-CD4 cells; assay type: cell-based; details: 15 min, ProTα 1 μg/mL or 10% conditioned medium
Experimental: as §3, §4

CMV promoter = test: Luciferase reporter under CMV promoter (VVCW/LBE) in macrophages; assay type: cell-based; details: 200 ng/ml at 48-72 hr post infection; 24 hr post treatment
Source text: (§5) Inhibition of HIV-1 Gene Transcription by ProTα is not Selective for the HIV-1 LTR Promoter. To determine whether the effect of ProTα on HIV-1 gene transcription is specific for the LTR promoter, the present inventors used two other HIV derived lentiviral vectors carrying luciferase reporter genes under control of PGK (phosphoglycerate kinase-VVPW/LBE) or CMV (cytomegalovirus-VVCW/LBE) promoters (kindly provided by Dr. L. Gusella). Macrophages were infected with HIV-1VSV carrying the luciferase gene, under the control of LTR, PGK or CMV promoters. At 48-72 hr post infection when viral integration is completed, ProTα at 200 ng/ml was introduced.

PGK promoter = test: Luciferase reporter under PGK promoter (VVPW/LBE) in macrophages; assay type: cell-based; details: 200 ng/ml at 48-72 hr post infection; 24 hr post treatment
Source text: as §5

mC2,C3-Ba-L = test: Replication of LTR-mutated mC2,C3-Ba-L in primary macrophages, p24; assay type: cell-based, HIV-1; details: 200 ng/ml, p24 days 6-10, 3 donors
[9] = tested on: HIV-1 lab isolates (HIV-1BaL and HIV-1IIIB) or HIV-1 primary isolates; test: HIV-1 replication in primary CD4+ cells (lab and primary isolates); assay type: cell-based; details: primary CD4+ cells; data not presented
IkBα mRNA = IkBα mRNA by real time PCR in macrophages carrying integrated HIV; assay type: cell-based; details: data not presented
Experimental: as §1
for IkB sense-[…] anisense-[…].
as §2

IkBα protein = IkBα protein level in the nucleus of macrophages; assay type: cell-based; details: 1 hr post treatment, data not presented
STAT2 = STAT2 phosphorylation in treated macrophages; details: supernatant 10% by volume, data not presented
type one and/or two IFNs = test: Induction of type one and/or two IFN mRNA in primary macrophages; details: 24 hr post treatment, data not presented

## Cc1cn([C@H]2C[C@H](N=[N+]=[N-])[C@@H](CO)O2)c(=O)[nH]c1=O [AZT, azidothymidine, reference compound]
HIV-1VSV
  effect on HIV-1 gene expression (luciferase): no effect

## O=C(O)C(=O)CC(=O)c1cccn1Cc1ccc(F)cc1 [L-731 988, reference compound]
HIV-1BaL; added at 2 hr post infection, replication competent viruses
  suppression of virus replication by integrase inhibitor: did not completely suppress virus replication
HIV-1VSV
  effect on HIV-1 gene expression (luciferase): no effect

## CCCC(=O)[O-].[Na+] [sodium butyrate]
HDAC
  reduction in ProTα activity: 70-80%

## prothymosin alpha [ProTα]
HIV-1BaL; 2 ng/mL rProTα, primary macrophages
  reduction of viral p24 antigen: greater than 80%
HIV-1BaL; primary macrophages, 200 ng/ml, p24 days 6-10, 3 donors
  inhibition of wild type (LTR) virus: 90-95%
HIV-1BaL; primary macrophages, dose response
  suppression of HIV-1BaL replication as measured by HIV-1 p24 antigen: dosage dependent suppression
HIV-1JRFL [1]; dose response
  inhibition of the luciferase reporter gene of HIV-1JRFL: dose dependent inhibition
HIV-1JRFL [1]; luciferase 72 hr post infection
  concentration at which anti-HIV-1 activity was exhibited (as low as): 20 ng/mL
HIV-1JRFL [2]
  anti-HIV-1JRFL activity: did not, however, exhibit anti-HIV-1JRFL activity
HIV-1JRFL [3]
  anti-HIV-1JRFL activity: did not, however, exhibit anti-HIV-1JRFL activity
[4]
  replication of CCR5 HIV-1 primary isolate: inhibited replication
[5]
  replication of dual tropic HIV-1 primary isolate: inhibited replication
HIVVSV; DCs treated 2 hr post infection
  reduction of expression of the reporter gene luciferase: 90%
HIVVSV; DCs treated 72 hr post infection
  inhibition of integrated proviral HIV-1: 65-75%
HIV-1VSV
  effect on HIV-1 gene expression (luciferase): inhibit HIV-1 gene expression
  expression of luciferase reporter gene from LTR promoter: inhibited expression
  reduction of HIV-1 gene expression: 80%
[6]
  suppression of LTR controlled luciferase reporter gene mRNA levels: 80%
STAT1 [7]
  phosphorylation state of STAT1 (Tyr701): no effect
STAT1 [8]
  phosphorylation state of STAT1 (Tyr701): no effect
CMV promoter
  expression of luciferase reporter gene from CMV promoter: inhibited expression
PGK promoter
  expression of luciferase reporter gene from PGK promoter: inhibited expression
mC2,C3-Ba-L
  suppression of mutated (LTR) virus replication: 60-80%
[9]
  suppression of replication: varying from 30-40% suppression to no suppression
IkBα mRNA
  induction of IkBα mRNA: 10 fold
IkBα protein
  level of IkBα protein in the nucleus: increased substantially
STAT2
  STAT 2 phosphorylation: did not induce STAT 2 phosphorylation
Type one and/or two IFNs
  induction of type one and/or two IFN mRNA: no induction

## thymosin alpha 1 (Ac-SDAAVDTSSEITTKDLKEKKEVVEEAEN; UniProt P06454 2-29, looked up, fragment) [Tα1, chemically synthesized peptide homologous to the first 28 amino acids of ProTα, reference compound]
HIV-1JRFL [1]; up to 1 μg/mL
  activity against the HIVJRFL expressing luciferase reporter gene: no activity
